Results as given in EP1015457B1, “1,3-DIOXOLO/4,5-H//2,3/BENZODIAZEPINE DERIVATIVES AS AMPA/KAINATE RECEPTOR INHIBITORS” (EGIS GYOGYSZERGYAR RT., priority 1997, dated 1999).
Where two headings read alike, the source gives them in different places.

Experiments:
[1] = system: CAl neurones of rat hippocampus; test: PSI (inhibition of population spike) test; type: cell-based; conditions: electric stimulation of Shaffer collateral comissural pathway
Method: PSI (inhibition of population spike) test
The field potentials (population spike) evoked by electric stimulation of the Shaffer collateral comissural pathway were measured in the CAl neurones of rat hippocampus. The population spike can be inhibited by AMPA/kainate antagonists. The non-cumulative IC50 values are shown in Table I. /Tarnawa, I., Molnár, P., Gaál, L., Andrási, F.: Inhibition of hippocampal field potentials by GYKI 52466 in vitro and in vivo, Acta Physiol. Hung., 79(2), 163-9 (1992)/.

male NMRI mice [2] = test: Muscle relaxant effect, 60° inclined screen according to Hoppe; type: in vivo; conditions: for ED50: Mus musculus, determined at the time of maximal effect; for ED50 / Muscle relaxant effect duration: ip.; for ED50 / Muscle relaxant effect duration / muscle relaxant effect in the inclined screen: mice; for Muscle relaxant effect duration: time of last reading when the effect was at least 30 %; for muscle relaxant effect in the inclined screen: 60 mg/kg dose
Method: The assay was done according to Hoppe in male NMRI mice weighing 20 to 25 g, with 10 animals in each group /Hoppe, J.O., J . Pharmacol. Exp. Ther., 100, 333 (1950)/. Following the ip. treatment of animals, the number of mice showing muscle weakness were recorded at every 10 minutes in the first hour and at half hour intervals afterwards. The animals falling off the 60° inclined screen within 30 seconds were considered positive. ED50 values of the given compounds were determined at each time. The duration of effect was defined as the time of last reading when the effect was at least 30 %.

[3] = system: isolated retinal preparation of the chicken; test: SD (spreading depression) test, evoked by kainate; type: cell-based; conditions: Gallus gallus, chicken retina
Source text: SD (spreading depression) test
The method is based on the phenomenon of spreading depression evoked by kainate in isolated retinal preparation of the chicken. The formation of spreading depression is inhibited (delayed) by AMPA/kainate antagonists. /Sheardown M.J.: The triggering of spreading depression in the chicken retina: a pharmacological study, Brain Res., 607(1-2), 189-194 (1993)/.

male DBA/2j strain mice = test: Audiogenic seizure (AS) test; type: in vivo; conditions: Mus musculus, ip., DBA/2j mice, inhibition of sound induced seizure
Method: Audiogenic seizure (AS) test
The experiments were carried out by the slightly modified method of De Sarro et al. /De Sarro, G.B., Croucher, M.J. and Meldrum, B.S.: Anticonvulsant action of DS 103-282, Neuropharm., 23, 525 (1984)/. Groups of 8 male DBA/2j strain mice weighing 7 to 14 g were treated ip. with the test substance in 10 ml/kg volume. 15 minutes later, the animals were placed into a covered glass container (30 cm in diameter) and exposed to a 14 kHz 120 dB tone for 60 s at the most. Seizure response was assessed using the following scale: 0 = normal behaviour, 1 = wild running, 2 = clonus, 3 = tonic flexor seizure, 4 = tonic extensor seizure. The maximum response during the 60 s exposure was recorded for each animal. Lethality was also noted. The ED50 values were determined by the method of Litchfield and Wilcoxon concerning the inhibition of clonic seizures and tonic extensor convulsions.

male NMRI mice [4] = test: Maximal electroshock test (MES); type: in vivo; conditions: Mus musculus, 0.5 h, ip., inhibition of maximal electroshock, 30 minutes after treatment
Method: Maximal electroshock test (MES)
Male NMRI mice weighing 20 to 30 g were used for the method of Swinyard et al. /Swinyard, E.A., Brown, W.C. and Goodman, L.S.: Comparative assays of antiepileptic drugs in mice and rats, J. Pharmacol., 106, 319 (1952)/. The animals, 10 in each group, were treated ip. either with various doses of the test substance or with vehicle. After 30 minutes, a 50 Hz, 40 mA electroshock was applied for 0.4 s through corneal electrodes. The number of animals that developed tonic extensor convulsion of the hind-limbs was registered, percent inhibition was calculated, and ED50 values were determined by the method of Litchfield and Wilcoxon /Litchfield, J.T., Wilcoxon, F.A.: A simplified method of evaluating dose-effect experiments, J. Pharmacol. Exp. Ther., 96, 99 (1949)/ and summarized in Table III.

male NMRI mice [5] = test: Global ischemia induced by magnesium chloride (gasping time); type: in vivo; conditions: for Effect in % (increase in gasping time): Dose 30 mg/kg ip., magnesium chloride iv. after 30 minutes; for ID50: ip., gasping time, calculated by linear regression
Method: Global ischemia induced by magnesium chloride
The experiments were carried out as described by Berga et al. /Berga, P., Beckett, P.R., Roberts, D.J., Llenas, J., Massingham, R.: Synergistic interactions between piracetam and dihydroergocristine in some animal models of cerebral hypoxia and ischemia, Arzneim.--Forsch., 36, 1314-1320 (1986)/. Groups of 10 male NMRI mice weighing 20 to 25 g were treated ip. with the test substance in […]. After 30 minutes, saturated aqueous magnesium chloride solution was applied iv. (5 ml/kg) resulting in an immediate cardiac arrest. The elapsed time between the iv. injection and the last gasping was measured (gasping time). The means of the treated groups were expressed as percent of control. Statistical analysis was done by ANOVA followed by DUNCAN test. The dose resulting in 50 % descrease in gasping time (ID50) was calculated by linear regression.

[6] = clonic seizures, read-out: AS ED50 clonic convulsion
[7] = tonic extensor convulsions, read-out: AS ED50 tonic convulsion

SMILES | Percent inhibition of population spike (10 micron) [1] | ED50 (male NMRI mice [2]) | Muscle relaxant effect duration (male NMRI mice [2]) | IC50 [3] | ED50 (male DBA/2j strain mice; [6]) | ED50 (male DBA/2j strain mice; [7]) | ED50 (male NMRI mice [4]) | Effect in % (increase in gasping time) (male NMRI mice [5]) | ID50 (male NMRI mice [5]) | muscle relaxant effect in the inclined screen (male NMRI mice [2]) | muscle relaxant effect (male NMRI mice [2]; at about 4.5 times higher dose than the anticonvulsive ED50 (6.9 mg/kg))
CC1Cc2cc3c(cc2C(c2ccc(N)cc2)=NN1C(=O)NC1CC1)OCO3 (racemic) [Example 2, (±)-5-(4-Aminophenyl)-7-(N-cyclopropylcarbamoyl)-7,8-dihydro-8-methyl-9H-1,3--dioxolo/4,5-h//2,3/benzodiazepine] | 100% | 21.1 mg/kg | higher than 2 hr | 1300 nM | 2.5 mg/kg | 1.6 mg/kg | 4.6 mg/kg | 61% | 13 mg/kg | – | –
CONC(=O)N1N=C(c2ccc(N)cc2)c2cc3c(cc2CC1C)OCO3 (racemic) [Example 3, (±)-5-(4-Aminophenyl)-7,8-dihydro-8-methyl--7-(N-methoxycarbamoyl)-9H-1,3-dioxolo/4,5-h//2,3/benzodiazepine] | 95% | 18.1 mg/kg | 4 h | 1500 nM | – | – | 3.7 mg/kg | 52% | 27 mg/kg | – | –
CC1Cc2cc3c(cc2C(c2ccc(N)cc2)=NN1C(=O)NN)OCO3 (racemic) [Example 4, (±)-5-(4-Aminophenyl)-7-(N-aminocarbamoyl)--7,8-dihydro-8-methyl-9H-1,3-dioxolo/4,5-h//2,3/benzodiazepine] | 95% | – | – | – | – | – | – | – | – | – | –
CC1=NN=C(c2ccc(N)cc2)c2cc3c(cc2C1)OCO3 [A, 8-Methyl-5--(4-aminophenyl)-9H-1,3-dioxolo/4,5-h//2,3/benzodiazepine, reference compound] | 58% | 24.5 mg/kg | 1 h | 9500 nM | 4.3 mg/kg | 3.6 mg/kg | 6.9 mg/kg | 55% | 30 mg/kg | all the treated animals showed muscle relaxation | about 50%
CC1=Cc2cc3c(cc2C(c2ccc(N)cc2)=NN1C(=O)NCCN1CCOCC1)OCO3 [Example 6, 5-(4-Aminopheayl)-8-methyl-7H-1,3-dioxolo/4,5-h//2,3/benzodiazepine-7-carboxylic acid-(2-morpholino-4-ylethyl)amide] | – | – | – | 6500 nM | – | – | ~10 mg/kg | – | – | no muscle relaxant effect | –
CNC(=O)N1N=C(c2ccc(N)cc2)c2cc3c(cc2C=C1C)OCO3 [Example 11, 5-(4-Aminophenyl)-8-methyl-7-methylcarbamoyl-7H-1,3-dioxolo/4,5-h//2,3/benzodiazepine] | – | – | – | 2800 nM | – | – | – | – | – | – | –
